Measured values as given in patent publication US20100286284A1, “5-[1'-(DECAHYDRO-7-HYDROXY-1,1,3A,7-TETRAMETHYL-1H-CYCLOPROPA[A]NAPHTHALEN-4-YL)-3'-METHYLBUTYL]-2,4,6-TRIHYDROXY-1,3-BENZENEDICARBOXALDEHYDE AS MEDICAMENTS” (Pierre Fabre Medicament, priority 2008, published 2010).

Columns and labels:
Type in all cases: biochemical
Dopamine reuptake = test: Reuptake of dopamine (DA), [3H]-DA uptake in synapses of rat striatum; conditions: in vitro, 15 min at 37° C.
Experimental: (§1) The uptake tests were carried out in vitro on rat synapses.
(§2) Following incubation, the samples are rapidly filtered in vacuo through glass fibre filters (GB/B, Packard) and rinsed twice with ice-cold incubation buffer to eliminate free [^3H]-dopamine. The filters are dried and the radioactivity retained is measured by a scintillation counter (Topcount, Packard) using a scintillation cocktail (Microscint O, Packard).
(§3) The results are expressed as a percentage inhibition of the reuptake of the neurotransmitter evaluated.

Serotonin reuptake = test: Reuptake of serotonin (5-HT), [3H]-serotonin uptake in rat brain synapses; conditions: in vitro, synapses from rats' brains, 15 min at 37° C.
Experimental: as §1
The basal activity is determined by incubating the same mixture for 15 min at 37° C. in the presence of 10 μM imipramine to block the reuptake.
as §2, with “[^3H]-serotonin.” for “[^3H]-dopamine.”
as §3

Noradrenaline reuptake = test: Reuptake of noradrenaline (NE), [3H]-NE uptake in synapses of rat hypothalamus; conditions: in vitro, 20 min at 37° C.
Experimental: as §1
The basal activity is determined by incubating the same mixture for 20 min at 37° C. in the presence of 10 μM of protriptyline to block the reuptake.
as §2, with “[^3H]-NE.” for “[^3H]-dopamine.”
as §3

Row | Molecule | IC50 Dopamine reuptake (Dopamine reuptake) | IC50 Serotonin reuptake (Serotonin reuptake) | IC50 Noradrenaline reuptake (Noradrenaline reuptake)
1 | CC(C)C[C@@H](c1c(O)c(C=O)c(O)c(C=O)c1O)[C@@H]1CC[C@@](C)(O)[C@@H]2[C@@H]3C(CC[C@]21C)C3(C)C (stereo partly drawn) [Macrocarpal L] | 1.0 μg/ml of solution | 1.8 μg/ml of solution | 3.1 μg/ml of solution
2 | Hyperforin | 0.23 μg/ml of solution | 0.89 μg/ml of solution | 0.79 μg/ml of solution
